Data published in article PMC12796071, “Evaluation of [^18F]MNI-1054, a novel PET ligand for lysine-specific histone demethylase 1A (LSD1), in non-human primates” (EJNMMI Research, 2025).
Values joined by “and” are separate entries in the source; they are usually repeats but may differ in a detail not shown here. Identical values can stand only once. “Also recorded” adds a separate entry of the source.

Assay: Whole-body PET biodistribution and radiation dosimetry (OLINDA 2.0)
Format: in vivo
Settings: for Dose, Urinary bladder wall: no-bladder-void model; for whole-body effective dose, ED (ICRP-103): scaled from NHP to human
Procedure: Dynamic whole-body PET was conducted in one male (M3, 15.4 kg) and one female (M4, 6.8 kg) rhesus to study the biodistribution and radiation dosimetry of [^18F]MNI-1054. Whole-body images were acquired over ~4 h (17–19 passes, 4 bed positions) using a Biograph mCT PET/CT scanner (Siemens). The images in the series were subsequently reconstructed in 400 × 400 × 300 pixel arrays with pixel size: 2 × 2 × 2 mm^3 using the iterative True-X algorithm (4 iterations, 21 subsets) provided by the camera manufacturer, incorporating point spread function modeling and corrections for random, scatter, normalization, dead-time and attenuation. Prior to PET, each animal received a whole-body CT for correcting attenuation and scatter as well as to assist in anatomical localization of organs of interest.
Reconstructed whole-body PET volumes were transferred to PMOD software (PMOD Technologies, Zurich, Switzerland) for analysis. Decay correction was first removed to facilitate the calculation of radioactive disintegrations from dynamic data. Images were reviewed for assessment of body organ radioactivity distribution. VOIs were manually drawn to capture the following organs: brain, heart wall, lungs, gallbladder, liver, kidneys, spleen, testes (male), urinary bladder, back vertebrae, and intestines, and defined dynamically to account for any animal movement or shift in organ position or shape between acquisitions. Total activity (kBq) within each VOI was determined and organ TACs were generated and expressed as percent of the injected activity.
The number of disintegrations per unit activity administered in each source organ (i.e., the “residence times” or “time-integrated activity coefficients”), τ, were computed from the areas under the non-decay corrected TACs via the trapezoidal method. The area under the curve from the end of imaging to infinity was calculated with the assumption of physical decay only following the last imaging time point. Residence times were converted to adult human values using conversion factors based on differences in organ and body weights between both species. The ICRP 100 HAT gastrointestinal (GI) tract model was applied to estimate residence times in the left, right, and sigmoid (i.e., rectum) colon and small intestine, with the assumption that activity entered the GI tract via the small intestine with no reabsorption. The intestinal decay-corrected time-activity curve was used for estimating the fraction of the radioactivity entering the intestine during imaging. Red marrow residence times were calculated based on assumption that vertebrae contain ~40% of total red marrow.
OLINDA 2.0 software (Hermes Medical Solutions) was used to estimate the organ and whole-body radiation absorbed doses. OLINDA 2.0 performs internal dose calculations based on MIRD and Radiation Dose Assessment Resource (RADAR) methodology. ICRP-89 adult male (73 kg) and female (60 kg) models were used to calculate the s-factors. All other MIRD assumptions about the homogeneity of source organ distribution were employed. The effective doses were computed with biological tissue weighting factors defined in the ICRP Publication 103 [26].

SMILES: Cc1cc([18F])ncc1C(=O)Nc1ccc([C@@H]2C[C@H]2NCC2CC2)cc1 [[^18F]MNI-1054]
- Dose, Adrenals (ICRP-89 adult female model): 2.24E-02 mSv/MBq
- Dose, Brain (ICRP-89 adult female model): 1.22E-02 mSv/MBq
- Dose, Breasts (ICRP-89 adult female model): 1.06E-02 mSv/MBq
- Dose, Esophagus (ICRP-89 adult female model): 1.75E-02 mSv/MBq
- Dose, Eyes (ICRP-89 adult female model): 9.29E-03 mSv/MBq
- Dose, Gallbladder wall (ICRP-89 adult female model): 2.88E-01 mSv/MBq
- Dose, Heart wall (ICRP-89 adult female model): 4.98E-02 mSv/MBq
- Dose, Kidneys (ICRP-89 adult female model): 5.28E-02 mSv/MBq
- Dose, Left colon (ICRP-89 adult female model): 3.02E-02 mSv/MBq
- Dose, Liver (ICRP-89 adult female model): 2.29E-02 mSv/MBq
- Dose, Lungs (ICRP-89 adult female model): 6.16E-02 mSv/MBq
- Dose, Osteogenic cells (ICRP-89 adult female model): 1.36E-02 mSv/MBq
- Dose, Ovaries (ICRP-89 adult female model): 1.66E-02 mSv/MBq
- Dose, Pancreas (ICRP-89 adult female model): 2.12E-02 mSv/MBq
- Dose, Rectum (ICRP-89 adult female model): 1.88E-02 mSv/MBq
- Dose, Red marrow (ICRP-89 adult female model): 2.01E-02 mSv/MBq
- Dose, Right colon (ICRP-89 adult female model): 6.29E-02 mSv/MBq
- Dose, Salivary glands (ICRP-89 adult female model): 1.01E-02 mSv/MBq
- Dose, Small intestine (ICRP-89 adult female model): 6.01E-02 mSv/MBq
- Dose, Spleen (ICRP-89 adult female model): 2.77E-02 mSv/MBq
- Dose, Stomach wall (ICRP-89 adult female model): 1.69E-02 mSv/MBq
- Dose, Thymus (ICRP-89 adult female model): 1.88E-02 mSv/MBq
- Dose, Thyroid (ICRP-89 adult female model): 1.32E-02 mSv/MBq
- Dose, Total body (ICRP-89 adult female model): 1.53E-02 mSv/MBq
- Dose, Uterus (ICRP-89 adult female model): 1.92E-02 mSv/MBq
- Dose, Urinary bladder wall (ICRP-89 adult female model): 5.92E-02 mSv/MBq
- whole-body effective dose, ED (ICRP-103) (ICRP-89 adult female model): 0.0272 mSv/MBq and 2.72E-02 mSv/MBq
- Dose, Adrenals (ICRP-89 adult male model): 1.87E-02 mSv/MBq
- Dose, Brain (ICRP-89 adult male model): 9.69E-03 mSv/MBq
- Dose, Esophagus (ICRP-89 adult male model): 1.49E-02 mSv/MBq
- Dose, Eyes (ICRP-89 adult male model): 7.78E-03 mSv/MBq
- Dose, Gallbladder wall (ICRP-89 adult male model): 6.57E-02 mSv/MBq
- Dose, Heart wall (ICRP-89 adult male model): 4.90E-02 mSv/MBq
- Dose, Kidneys (ICRP-89 adult male model): 4.63E-02 mSv/MBq
- Dose, Left colon (ICRP-89 adult male model): 1.62E-02 mSv/MBq
- Dose, Liver (ICRP-89 adult male model): 3.02E-02 mSv/MBq
- Dose, Lungs (ICRP-89 adult male model): 4.01E-02 mSv/MBq
- Dose, Osteogenic cells (ICRP-89 adult male model): 1.21E-02 mSv/MBq
- Dose, Pancreas (ICRP-89 adult male model): 1.48E-02 mSv/MBq
- Dose, Prostate (ICRP-89 adult male model): 1.78E-02 mSv/MBq
- Dose, Rectum (ICRP-89 adult male model): 1.60E-02 mSv/MBq
- Dose, Red marrow (ICRP-89 adult male model): 1.65E-02 mSv/MBq
- Dose, Right colon (ICRP-89 adult male model): 2.37E-02 mSv/MBq
- Dose, Salivary glands (ICRP-89 adult male model): 9.10E-03 mSv/MBq
- Dose, Small intestine (ICRP-89 adult male model): 2.08E-02 mSv/MBq
- Dose, Spleen (ICRP-89 adult male model): 1.84E-02 mSv/MBq
- Dose, Stomach wall (ICRP-89 adult male model): 1.42E-02 mSv/MBq
- Dose, Testes (ICRP-89 adult male model): 3.17E-02 mSv/MBq
- Dose, Thymus (ICRP-89 adult male model): 1.44E-02 mSv/MBq
- Dose, Thyroid (ICRP-89 adult male model): 1.14E-02 mSv/MBq
- Dose, Total body (ICRP-89 adult male model): 1.16E-02 mSv/MBq
- Dose, Urinary bladder wall (ICRP-89 adult male model): 1.24E-01 mSv/MBq
- whole-body effective dose, ED (ICRP-103) (ICRP-89 adult male model): 0.0267 mSv/MBq and 2.67E-02 mSv/MBq
- Dose, Adrenals (Mean): 2.06E-02 mSv/MBq
- Dose, Brain (Mean): 1.09E-02 mSv/MBq
- Dose, Breasts (Mean): 1.06E-02 mSv/MBq
- Dose, Esophagus (Mean): 1.62E-02 mSv/MBq
- Dose, Eyes (Mean): 8.54E-03 mSv/MBq
- Dose, Gallbladder wall (Mean): 0.18 mSv/MBq and 0.177 mSv/MBq and 1.77E-01 mSv/MBq
- Dose, Heart wall (Mean): 4.94E-02 mSv/MBq
- Dose, Kidneys (Mean): 4.96E-02 mSv/MBq
- Dose, Left colon (Mean): 2.32E-02 mSv/MBq
- Dose, Liver (Mean): 2.66E-02 mSv/MBq
- Dose, Lungs (Mean): 5.09E-02 mSv/MBq
- Dose, Osteogenic cells (Mean): 1.29E-02 mSv/MBq
- Dose, Ovaries (Mean): 1.66E-02 mSv/MBq
- Dose, Pancreas (Mean): 1.80E-02 mSv/MBq
- Dose, Prostate (Mean): 1.78E-02 mSv/MBq
- Dose, Rectum (Mean): 1.74E-02 mSv/MBq
- Dose, Red marrow (Mean): 1.83E-02 mSv/MBq
- Dose, Right colon (Mean): 4.33E-02 mSv/MBq
- Dose, Salivary glands (Mean): 9.60E-03 mSv/MBq
- Dose, Small intestine (Mean): 4.05E-02 mSv/MBq
- Dose, Spleen (Mean): 2.31E-02 mSv/MBq
- Dose, Stomach wall (Mean): 1.56E-02 mSv/MBq
- Dose, Testes (Mean): 3.17E-02 mSv/MBq
- Dose, Thymus (Mean): 1.66E-02 mSv/MBq
- Dose, Thyroid (Mean): 1.23E-02 mSv/MBq
- Dose, Total body (Mean): 1.35E-02 mSv/MBq
- Dose, Uterus (Mean): 1.92E-02 mSv/MBq
- Dose, Urinary bladder wall (Mean): 0.0916 mSv/MBq and 9.16E-02 mSv/MBq
- whole-body effective dose, ED (ICRP-103) (Mean): 2.70E-02 mSv/MBq
- whole-body effective dose per 185 MBq injected (female value): 5.03 mSv
- maximal dose allowed for a single study per 21 CFR § 361.1 (gallbladder wall as the dose-limiting organ): 282.5 MBq
- elimination pathways (whole-body imaging): eliminated via both hepatobiliary and urinary pathways; also recorded: urinary (primary) and hepatobiliary pathways
